Where two headings read alike, the source gives them in different places.
Experiments:
[1] = tested on: patients with advanced non-small cell lung cancer; settings: Hahm et al. 2002; cited from earlier work
ODC = settings: cited from earlier work

Description for SOD1 G93A mice: • (i) Model Description: The SOD1 G93A (high copy) mouse model was used as the model for ALS. This mouse model carries 25 copies of the human G93A SOD mutation and is driven by the endogenous promoter. Survival in the mouse is copy dependent. The high copy G93A has a median survival of around 128 days. High molecular weight complexes of mutant SOD protein are seen in the spinal cord beginning around day 30. At day 60 reactive astrocytosis (GFAP reactive) are observed; activated microglia are observed from day 90 onwards.
DFMO was obtained in oral form from ILEX Oncology, Inc (San Antonio, Tex.). • (iv) Methods: Forty (n=40) SOD1 G93A high copy mice obtained from Jackson Laboratory (Bar Harbor, Me.) were separated into two groups of twenty (n=20) with an equal number of males (n=10) and females (n=10) in each group. The groups were also litter matched to reduce group variation. Male animals were singly housed and females were group housed to conserve space. […] When animals had difficulty in moving and taking care of themselves chow and water were replaced with food pellets in bedding and Jell-O for water. • (v) Pharmacological Agent Delivery: All pharmacological agents were administered to SOD1 G93A mice. DFMO was delivered according to a chronic delivery protocol applied in the human glioblastoma trial (UCSF Clinical trial protocol of ALS).
In Example 2, the animals were dosed at 3200 mg/Kg/day of DFMO in drinking water for 21 days followed by a 7 day drug holiday (no DFMO). In Example 3, the animals were continually dosed at 3200 mg/Kg/day of DFMO in drinking water. Controls animals were given water as vehicle. All treatments are performed 7 days per week and treatment was initiated at day 60 of life. The treated group continued to receive 3200 mg/kg/day of DFMO in drinking water until a neurological score of 2 (See section (vi) below) at which point drug was delivered via intraperitineal injection (IP) injection. When a neurological score of 2 is attained, the animals are no longer capable of drinking themselves due to paralysis. At this point, the same dosage of DFMO is administered to the animal in IP injection form. Controls were given water as vehicle until a neurological score of 2 at which point they were injected with saline as vehicle.
In Example 6, hydroxyurea was administered by intraperitineal injection at a dose of 250 mg/Kg/day once daily for 7 days a week, beginning at day 50 until day 110.
The animals are sacrificed at this stage if alive. • (vii) End Points and Statistics: The primary end point is survival with secondary end points of neurological score and body weight. Neurological score observations and body weight are made and recorded five days per week. • (viii) Statistical Analysis: Statistical analysis on body weight and neurological score was performed using mixed linear model repeated measure ANOVA. Survival analysis was performed by Kaplan-Meier analysis using the frailty model for sex and litter correction.

For NCCCC(N)(C(=O)O)C(F)F (racemic) [DFMO, 2-(Difuoromethyl)-DL-ornithine], the “effect in male mice, ongoing IP injection study” value (SOD1 G93A mice; IP injection, 3200 mg/kg, male mice) was “positive male trend”, the “Percent survival analysis: life span” value (SOD1 G93A mice; continuous dosing 3200 mg/Kg/day in drinking water, no drug holiday, until death, FIGS. 4, 6 and 8) was “extended the life span” and the “Neurological score analysis, combined male and female” value (SOD1 G93A mice; continuous dosing 3200 mg/Kg/day, combined male and female, FIG. 5) was “protective”. The “Neurological score analysis, female” value (SOD1 G93A mice; continuous dosing 3200 mg/Kg/day, FIG. 9) was “protective”, the “Neurological score analysis, male” value (SOD1 G93A mice; continuous dosing 3200 mg/Kg/day, male, FIG. 7) was “protective” and the “Neurological score analysis, combined results” value (SOD1 G93A mice; discontinuous dosing 3200 mg/Kg/day, combined male and female mice) was “No effect”. For the same compound, the “Neurological score analysis, female mice” value (SOD1 G93A mice; discontinuous dosing 3200 mg/Kg/day, female mice, during the drug delivery period, FIG. 3) was “protective”, the “Neurological score analysis, male mice” value (SOD1 G93A mice; discontinuous dosing 3200 mg/Kg/day, male mice) was “No effect” and the “Percent survival analysis: onset of disease and survival” value (SOD1 G93A mice; discontinuous dosing, 3200 mg/Kg/day in drinking water, 21 days on / 7 day holiday, FIG. 2) was “delays the onset of disease and extends the survival”. For the same compound, the “deaths of animals in the treatment group that occurred during the drug holiday or a few days immediately succeeding the holiday” value (SOD1 G93A mice; female SOD1 G93A mice, 3200 mg/Kg/day in drinking water for 21 days followed by 7 day drug holiday, control group 30%, FIG. 2) was 70%.
In the case of CCNCCCNCCCNCCCNCC [DENSPM, N(1),N(11)-diethylnorspermine], the “Neurological score analysis, female” value (SOD1 G93A mice; intraperitoneal 24 mg/kg/day twice daily till death, FIG. 13) is listed as “protective”, the “Percent survival analysis: onset of disease and survival” value (SOD1 G93A mice; intraperitoneal 24 mg/kg/day twice daily, 7 days a week till death, female mice, FIG. 12) is listed as “delays the onset of disease and extends the survival” and the “safety of administration to patients” value [1] is listed as “minimal toxicity”.
In the case of NCCCCNCCCN [spermidine], the “concentration in the culture medium that can inhibit ODC production for hours” value (ODC) is given as 50 µM.
For NC(=O)NO [hydroxyurea], the “Percent survival analysis: life span” value (SOD1 G93A mice; intraperitoneal 250 mg/Kg/day once daily, day 50 until day 110, female mice, FIG. 10) was “extended the life span” and the “Neurological score analysis, female” value (SOD1 G93A mice; intraperitoneal 250 mg/Kg/day once daily, day 50 until day 110, FIG. 11) was “protective”.

Source: US7211602B2, “Treatment of neurodegenerative disorders through the modulation of the polyamine pathway” (ALS Therapy Development Foundation, Inc., priority 2001, dated 2007)
